This is an account of results in US20090253662A1, “GENETIC RISK ASSESSMENT IN HEART FAILURE: IMPACT OF GENETIC VARIATION OF ALDOSTERONE SYNTHASE PROMOTER POLYMORPHISM” (NitroMed, Inc., priority 2005, published 2009).

Structures can show the parent of a compound that is named as a salt.

The conditions of series [1]: cited from earlier work.
The subject of series [2] is post myocardial infarction. The note with it: addition post myocardial infarction; cited from earlier work.
Series [3] deals with black cohorts with hypertension. The note with it: cited from earlier work.
In series [4] the test system is African American subjects with heart failure. Description: Left ventricular remodeling by transthoracic echocardiography at baseline and six months. The class given is in vivo, human. On the procedure:
Subjects were followed to an endpoint of death or heart failure hospitalization. Quality of Life Assessment was performed by the Minnesota Living with Heart Failure Questionnaire at baseline and at the six month visit. Left ventricular function was assessed transthoracic echocardiography at baseline and six months. The primary endpoint for A-HeFT was a composite weighted score with three components: mortality, heart failure hospitalization and change in quality of life. Left ventricular remodeling was investigated in a subset of A-HeFT subjects by transthoracic echocardiography at baseline and at six months. Event free survival was compared by genotype class by Kaplan-Meier log rank analysis, using a linear model that predicts an intermediate phenotype for heterozygotes. Continuous variables such as composite scores were compared by genotype class by linear ANOVA. For the interaction of aldosterone genotype and the impact of therapy, outcomes analyzed by genotype were compared first overall and then separately by treatment subset, fixed combination of isosorbide dinitrate and hydralazine versus placebo.

The test system of series [5] is subjects with severe heart failure. Conditions: addition of spironolactone; cited from earlier work.

With `NNc1nncc2ccccc12` [Hydralazine hydrochloride, hydralazine hydrochloride], the solubility in alcohol entry in series [1] (alcohol) is reported as “slightly soluble”. The solubility in ether result in series [1] (ether) is listed as “very slightly soluble”. Moreover, the solubility in water entry in series [1] is on record as “soluble”.
Turning to `COC(=O)[C@@H]1CC2=CC(=O)CC[C@]2(C)[C@@]23O[C@@H]2C[C@@]2(C)[C@@H](CC[C@@]24CCC(=O)O4)[C@H]13` [eplerenone], in series [2], the survival entry is “improves survival”. Further, in series [3], the “effectiveness versus angiotensin II antagonists” value was “more effective than angiotensin II antagonists”.
Regarding `O=[N+]([O-])O[C@H]1CO[C@H]2[C@@H]1OC[C@H]2O[N+](=O)[O-]` [isosorbide dinitrate, 1,4,3,6-dianhydro-D-glucitol-2,5-dinitrate], the “solubility in organic solvents” value in series [1] (organic solvents such as ethanol, ether and chloroform) is listed as “freely soluble”. In series [1], the solubility in water entry is reported as “sparingly soluble”.
With `CC(=O)S[C@@H]1CC2=CC(=O)CC[C@]2(C)[C@H]2CC[C@@]3(C)[C@@H](CC[C@@]34CCC(=O)O4)[C@H]12` [spironolactone], the “Left Ventricular Diastolic Diameter (LVDD) at 6 Months” value in series [4] (-344 CC genotype) turned out to be 6.5 ± 0.8 cm; in series [4] (-344 TC genotype), 6.3 ± 1.5 cm; in series [4] (-344 TT genotype), 6.2 ± 1.4 cm. Moreover, in series [4] (-344 CC genotype), the “Left Ventricular Ejection Fraction (LVEF) at 6 Months” value is recorded as 32 ± 6%. In addition, in series [5], the survival result is “improved survival”.
